Test results reported in ChEMBL document CHEMBL1275577, “Study of the in vitro activities of rifaximin and comparator agents against 536 anaerobic intestinal bacteria from the perspective of potential utility in pathology involving bowel flora” (Antimicrob Agents Chemother, 2009).
≈ marks a conversion by molar mass, not a printed value.

Legend:
Eubacterium limosum = experiment: Antimicrobial activity against Eubacterium limosum by Wadsworth agar dilution method; format: functional
Tissierella praeacuta = experiment: Antimicrobial activity against Clostridium hastiforme by Wadsworth agar dilution method; format: functional
Ruminococcus obeum = experiment: Antimicrobial activity against Ruminococcus obeum by Wadsworth agar dilution method; format: functional; settings: Blautia obeum
Cutibacterium acnes = experiment: Antimicrobial activity against Propionibacterium acnes by Wadsworth agar dilution method; format: functional
Clostridium glycolicum = experiment: Antimicrobial activity against Clostridium glycolicum by Wadsworth agar dilution method; format: functional; settings: Terrisporobacter glycolicus
Prevotella intermedia = experiment: Antimicrobial activity against Prevotella intermedia by Wadsworth agar dilution method; format: functional
Fusobacterium mortiferum = experiment: Antimicrobial activity against Fusobacterium mortiferum by Wadsworth agar dilution method in presence of beta-lactamase inhibitor Sulbactam; format: functional
[1] = test system: Fusobacterium necrophorum; experiment: Antimicrobial activity against Fusobacterium necrophorum by Wadsworth agar dilution method; format: functional
Ruminococcus gnavus = experiment: Antimicrobial activity against Ruminococcus gnavus by Wadsworth agar dilution method; format: functional; settings: Mediterraneibacter gnavus
Clostridioides difficile = experiment: Antimicrobial activity against Clostridium difficile by Wadsworth agar dilution method; format: functional
Clostridium spiroforme = experiment: Antimicrobial activity against Clostridium spiroforme by Wadsworth agar dilution method; format: functional; settings: Thomasclavelia spiroformis
Ruminococcus lactaris = experiment: Antimicrobial activity against Ruminococcus lactaris by Wadsworth agar dilution method; format: functional
[2] = test system: Lactiplantibacillus plantarum; experiment: Antimicrobial activity against Lactobacillus plantarum by Wadsworth agar dilution method; format: functional
Schaalia odontolytica = experiment: Antimicrobial activity against Actinomyces odontolyticus by Wadsworth agar dilution method; format: functional
[3] = test system: Coprobacillus cateniformis; experiment: Antimicrobial activity against Coprobacillus cateniformis by Wadsworth agar dilution method; format: functional
[4] = test system: Parabacteroides distasonis; experiment: Antimicrobial activity against Parabacteroides distasonis by Wadsworth agar dilution method; format: functional
Prevotella bivia = experiment: Antimicrobial activity against Prevotella bivia by Wadsworth agar dilution method; format: functional
Propionibacterium avidum = experiment: Antimicrobial activity against Propionibacterium avidum by Wadsworth agar dilution method; format: functional; settings: Cutibacterium avidum
Bacteroides uniformis = experiment: Antimicrobial activity against Bacteroides uniformis by Wadsworth agar dilution method; format: functional
[5] = Antimicrobial activity against Bifidobacterium infantis by Wadsworth agar dilution method; format: functional, Bifidobacterium longum subsp. infantis; settings: Bifidobacterium longum
[6] = test system: Bifidobacterium pseudolongum; experiment: Antimicrobial activity against Bifidobacterium pseudolongum by Wadsworth agar dilution method; format: functional
Porphyromonas somerae = experiment: Antimicrobial activity against Porphyromonas somerae by Wadsworth agar dilution method; format: functional
Clostridium beijerinckii = experiment: Antimicrobial activity against Clostridium beijerinckii by Wadsworth agar dilution method; format: functional
[7] = test system: Paraclostridium bifermentans; experiment: Antimicrobial activity against Clostridium bifermentans by Wadsworth agar dilution method; format: functional
Bacteroides fragilis = experiment: Antimicrobial activity against Bacteroides fragilis by Wadsworth agar dilution method; format: functional
[8] = test system: Peptoniphilus asaccharolyticus; experiment: Antimicrobial activity against Peptoniphilus asaccharolyticus by Wadsworth agar dilution method; format: functional
Eggerthella lenta = experiment: Antimicrobial activity against Eggerthella lenta by Wadsworth agar dilution method; format: functional
Clostridium sp. = experiment: Antimicrobial activity against Clostridium sp. by Wadsworth agar dilution method; format: functional
Eubacterium rectale = experiment: Antimicrobial activity against Eubacterium rectale by Wadsworth agar dilution method; format: functional; settings: Agathobacter rectalis
Clostridium septicum = experiment: Antimicrobial activity against Clostridium septicum by Wadsworth agar dilution method; format: functional
Schaalia meyeri = experiment: Antimicrobial activity against Actinomyces meyeri by Wadsworth agar dilution method; format: functional
Fusobacterium nucleatum = experiment: Antimicrobial activity against Fusobacterium nucleatum by Wadsworth agar dilution method; format: functional
Lactobacillus sp. = experiment: Antimicrobial activity against Lactobacillus sp. by Wadsworth agar dilution method; format: functional
[9] = test system: Clostridium acetobutylicum; experiment: Antimicrobial activity against Clostridium acetobutylicum by Wadsworth agar dilution method; format: functional
Anaerococcus tetradius = experiment: Antimicrobial activity against Anaerococcus tetradius by Wadsworth agar dilution method; format: functional
Clostridium scindens = experiment: Antimicrobial activity against Clostridium scindens by Wadsworth agar dilution method; format: functional
Bacteroides ovatus = experiment: Antimicrobial activity against Bacteroides ovatus by Wadsworth agar dilution method; format: functional
Prevotella disiens = experiment: Antimicrobial activity against Prevotella disiens by Wadsworth agar dilution method; format: functional
Clostridium subterminale = experiment: Antimicrobial activity against Clostridium subterminale by Wadsworth agar dilution method; format: functional
[10] = test system: Limosilactobacillus reuteri; experiment: Antimicrobial activity against Lactobacillus reuteri by Wadsworth agar dilution method; format: functional
Clostridium bartlettii = experiment: Antimicrobial activity against Clostridium bartlettii by Wadsworth agar dilution method; format: functional; settings: Intestinibacter bartlettii
Bifidobacterium longum = experiment: Antimicrobial activity against Bifidobacterium longum by Wadsworth agar dilution method; format: functional
Desulfovibrio vulgaris = experiment: Antimicrobial activity against Desulfovibrio vulgaris by Wadsworth agar dilution method; format: functional; settings: Nitratidesulfovibrio vulgaris
[11] = test system: Lactobacillus acidophilus; experiment: Antimicrobial activity against Lactobacillus acidophilus by Wadsworth agar dilution method; format: functional
[12] = test system: Bacteroides thetaiotaomicron; experiment: Antimicrobial activity against Bacteroides thetaiotaomicron by Wadsworth agar dilution method; format: functional
Eubacterium cylindroides = experiment: Antimicrobial activity against Eubacterium cylindroides by Wadsworth agar dilution method; format: functional; settings: Faecalitalea cylindroides
Bifidobacterium dentium = experiment: Antimicrobial activity against Bifidobacterium dentium by Wadsworth agar dilution method; format: functional

CC(=O)Oc1ccccc1C(=O)Nc1ncc([N+](=O)[O-])s1 [NITAZOXANIDE]
MIC50 (Eubacterium limosum): 2 µg/mL (≈ 6.51 µM) | MIC90 (Eubacterium limosum): 32 µg/mL (≈ 104 µM) | MIC50 (Tissierella praeacuta): 0.5 µg/mL (≈ 1.63 µM) | MIC90 (Tissierella praeacuta): 4 µg/mL (≈ 13 µM) | MIC50 (Ruminococcus obeum): 0.5 µg/mL (≈ 1.63 µM) | MIC90 (Ruminococcus obeum): 1 µg/mL (≈ 3.25 µM) | MIC50 (Cutibacterium acnes): 2 µg/mL (≈ 6.51 µM) | MIC90 (Cutibacterium acnes): 32 µg/mL (≈ 104 µM) | MIC50 (Clostridium glycolicum): 0.5 µg/mL (≈ 1.63 µM) | MIC90 (Clostridium glycolicum): 4 µg/mL (≈ 13 µM) | MIC50 (Prevotella intermedia): 4 µg/mL (≈ 13 µM) | MIC90 (Prevotella intermedia): 8 µg/mL (≈ 26 µM) | MIC50 (Fusobacterium mortiferum): 1 µg/mL | MIC90 (Fusobacterium mortiferum): 8 µg/mL | MIC50 [1]: 1 µg/mL (≈ 3.25 µM) | MIC90 [1]: 8 µg/mL (≈ 26 µM) | MIC50 (Ruminococcus gnavus): 0.5 µg/mL (≈ 1.63 µM) | MIC90 (Ruminococcus gnavus): 1 µg/mL (≈ 3.25 µM) | MIC (Clostridioides difficile): 0.25 µg/mL (≈ 0.814 µM) | MIC50 (Clostridioides difficile): 0.25 µg/mL (≈ 0.814 µM) | MIC90 (Clostridioides difficile): 0.5 µg/mL (≈ 1.63 µM) | MIC50 (Clostridium spiroforme): 0.5 µg/mL (≈ 1.63 µM) | MIC90 (Clostridium spiroforme): 4 µg/mL (≈ 13 µM) | MIC50 (Ruminococcus lactaris): 0.5 µg/mL (≈ 1.63 µM) | MIC90 (Ruminococcus lactaris): 1 µg/mL (≈ 3.25 µM) | MIC50 [2]: 2 µg/mL (≈ 6.51 µM) | MIC90 [2]: 32 µg/mL (≈ 104 µM) | MIC50 (Schaalia odontolytica): 2 µg/mL (≈ 6.51 µM) | MIC90 (Schaalia odontolytica): 32 µg/mL (≈ 104 µM) | MIC50 [3]: 2 µg/mL (≈ 6.51 µM) | MIC90 [3]: 32 µg/mL (≈ 104 µM) | MIC50 [4]: 4 µg/mL (≈ 13 µM) | MIC90 [4]: 4 µg/mL (≈ 13 µM) | MIC50 (Prevotella bivia): 4 µg/mL (≈ 13 µM) | MIC90 (Prevotella bivia): 8 µg/mL (≈ 26 µM) | MIC50 (Propionibacterium avidum): 2 µg/mL (≈ 6.51 µM) | MIC90 (Propionibacterium avidum): 32 µg/mL (≈ 104 µM) | MIC50 (Bacteroides uniformis): 4 µg/mL (≈ 13 µM) | MIC90 (Bacteroides uniformis): 4 µg/mL (≈ 13 µM) | MIC50 [5]: 2 µg/mL (≈ 6.51 µM) | MIC90 [5]: 32 µg/mL (≈ 104 µM) | MIC50 [6]: 2 µg/mL (≈ 6.51 µM) | MIC90 [6]: 32 µg/mL (≈ 104 µM) | MIC50 (Porphyromonas somerae): 0.5 µg/mL (≈ 1.63 µM) | MIC90 (Porphyromonas somerae): 1 µg/mL (≈ 3.25 µM) | MIC50 (Clostridium beijerinckii): 0.5 µg/mL (≈ 1.63 µM) | MIC90 (Clostridium beijerinckii): 4 µg/mL (≈ 13 µM) | MIC50 [7]: 0.5 µg/mL (≈ 1.63 µM) | MIC90 [7]: 4 µg/mL (≈ 13 µM) | MIC50 (Bacteroides fragilis): 4 µg/mL (≈ 13 µM) | MIC90 (Bacteroides fragilis): 4 µg/mL (≈ 13 µM) | MIC50 [8]: 0.5 µg/mL (≈ 1.63 µM) | MIC90 [8]: 1 µg/mL (≈ 3.25 µM) | MIC50 (Eggerthella lenta): 2 µg/mL (≈ 6.51 µM) | MIC90 (Eggerthella lenta): 32 µg/mL (≈ 104 µM) | MIC50 (Clostridium sp.): 0.5 µg/mL (≈ 1.63 µM) | MIC90 (Clostridium sp.): 4 µg/mL (≈ 13 µM) | MIC50 (Eubacterium rectale): 2 µg/mL (≈ 6.51 µM) | MIC90 (Eubacterium rectale): 32 µg/mL (≈ 104 µM) | MIC50 (Clostridium septicum): 0.5 µg/mL (≈ 1.63 µM) | MIC90 (Clostridium septicum): 4 µg/mL (≈ 13 µM) | MIC50 (Schaalia meyeri): 2 µg/mL (≈ 6.51 µM) | MIC90 (Schaalia meyeri): 32 µg/mL (≈ 104 µM) | MIC (Fusobacterium nucleatum): 0.25 µg/mL (≈ 0.814 µM) | MIC50 (Fusobacterium nucleatum): 0.25 µg/mL (≈ 0.814 µM) | MIC90 (Fusobacterium nucleatum): 0.5 µg/mL (≈ 1.63 µM) | MIC50 (Lactobacillus sp.): 2 µg/mL (≈ 6.51 µM) | MIC90 (Lactobacillus sp.): 32 µg/mL (≈ 104 µM) | MIC50 [9]: 0.5 µg/mL (≈ 1.63 µM) | MIC90 [9]: 4 µg/mL (≈ 13 µM) | MIC50 (Anaerococcus tetradius): 0.5 µg/mL (≈ 1.63 µM) | MIC90 (Anaerococcus tetradius): 1 µg/mL (≈ 3.25 µM) | MIC50 (Clostridium scindens): 0.5 µg/mL (≈ 1.63 µM) | MIC90 (Clostridium scindens): 4 µg/mL (≈ 13 µM) | MIC50 (Bacteroides ovatus): 2 µg/mL (≈ 6.51 µM) | MIC90 (Bacteroides ovatus): 4 µg/mL (≈ 13 µM) | MIC50 (Prevotella disiens): 4 µg/mL (≈ 13 µM) | MIC90 (Prevotella disiens): 8 µg/mL (≈ 26 µM) | MIC50 (Clostridium subterminale): 0.5 µg/mL (≈ 1.63 µM) | MIC90 (Clostridium subterminale): 4 µg/mL (≈ 13 µM) | MIC50 [10]: 2 µg/mL (≈ 6.51 µM) | MIC90 [10]: 32 µg/mL (≈ 104 µM) | MIC50 (Clostridium bartlettii): 0.5 µg/mL (≈ 1.63 µM) | MIC90 (Clostridium bartlettii): 4 µg/mL (≈ 13 µM) | MIC50 (Bifidobacterium longum): 2 µg/mL (≈ 6.51 µM) | MIC90 (Bifidobacterium longum): 32 µg/mL (≈ 104 µM) | MIC50 (Desulfovibrio vulgaris): 1 µg/mL (≈ 3.25 µM) | MIC90 (Desulfovibrio vulgaris): 4 µg/mL (≈ 13 µM) | MIC50 [11]: 2 µg/mL (≈ 6.51 µM) | MIC90 [11]: 32 µg/mL (≈ 104 µM) | MIC50 [12]: 2 µg/mL (≈ 6.51 µM) | MIC90 [12]: 8 µg/mL (≈ 26 µM) | MIC50 (Eubacterium cylindroides): 2 µg/mL (≈ 6.51 µM) | MIC90 (Eubacterium cylindroides): 32 µg/mL (≈ 104 µM) | MIC50 (Bifidobacterium dentium): 2 µg/mL (≈ 6.51 µM) | MIC90 (Bifidobacterium dentium): 32 µg/mL (≈ 104 µM)
